Key:
[1] = test system: Dirofilaria immitis microfilariae; test: Dirofilaria immitis microfilariae motility assay; conditions: 72 h, read-out: concentration at which active, microfilariae motility
[2] = test system: Aedes aegypti; test: In vitro evaluation of ingestion activity against mosquitoes; conditions: at 20 hours, compound in bovine blood, read-out: concentration at which active, mosquito ingestion
Procedure: In Vitro Evaluation of Ingestion Activity Against Mosquitoes (Aedes aegypti)
A solution of test compounds is added to bovine blood contained in a feeding chamber to reach the desired final concentration. Blood spiked with DMSO is prepared to serve as control. Adult female mosquitoes are introduced at the bottom of the chamber and allowed to feed on blood mixtures containing DMSO or test compounds for 30 minutes. Fully engorged mosquitoes are sorted into clean chambers after the blood meal and monitored for survival over 3 days. Replicates containing 10 mosquitoes are performed with each test compound concentration and results calculated as % mortality at specific time points.

SMILES	minimal effective concentration [1]	minimal effective concentration [2]
CCCCC(=O)N1CC2(C1)OCc1cc(C3=NSC(c4cc(Cl)c(F)c(Cl)c4)(C(F)(F)F)C3)ccc12 (stereo not drawn) [Compound 35, 1-[6-[5-(3,5-dichloro-4-fluoro-phenyl)-5-(trifluoromethyl)-4H-isothiazol-3-yl]spiro[1H-isobenzofuran-3,3′-azetidine]-1′-yl]pentan-1-one]	< 10 µM	< 1 µg/mL
O=C(N1CC2(C1)OCc1cc(C3=NSC(c4cc(Cl)c(F)c(Cl)c4)(C(F)(F)F)C3)ccc12)C(F)(F)C(F)(F)F (stereo not drawn) [Compound 30, 1-[6-[5-(3,5-dichloro-4-fluoro-phenyl)-5-(trifluoromethyl)-4H-isothiazol-3-yl]spiro[1H-isobenzofuran-3,3′-azetidine]-1′-yl]-2,2,3,3,3-pentafluoro-propan-1-one]	< 10 µM	< 1 µg/mL
CC(F)(F)C(=O)N1CC2(C1)OCc1cc(C3=NSC(c4cc(Cl)c(F)c(Cl)c4)(C(F)(F)F)C3)ccc12 (stereo not drawn) [Compound 31, 1-[6-[5-(3,5-dichloro-4-fluoro-phenyl)-5-(trifluoromethyl)-4H-isothiazol-3-yl]spiro[1H-isobenzofuran-3,3′-azetidine]-1′-yl]-2,2-difluoro-propan-1-one]	< 10 µM	
CCCCN1CC2(C1)OCc1cc(C3=NSC(c4cc(Cl)c(F)c(Cl)c4)(C(F)(F)F)C3)ccc12 (stereo not drawn) [Compound 20, 1′-butyl-6-[5-(3,5-dichloro-4-fluoro-phenyl)-5-(trifluoromethyl)-4H-isothiazol-3-yl]spiro[1H-isobenzofuran-3,3′-azetidine]]	< 10 µM	< 1 µg/mL
CNC(=O)N1CC2(C1)OCc1cc(C3=NSC(c4cc(Cl)c(F)c(Cl)c4)(C(F)(F)F)C3)ccc12 (stereo not drawn) [Compound 41, 6-[5-(3,5-dichloro-4-fluoro-phenyl)-5-(trifluoromethyl)-4H-isothiazol-3-yl]-N-methyl-spiro[1H-isobenzofuran-3,3′-azetidine]-1′-carboxamide]	< 10 µM	< 1 µg/mL
CC(C)(C)CCN1CC2(C1)OCc1cc(C3=NSC(c4cc(Cl)c(F)c(Cl)c4)(C(F)(F)F)C3)ccc12 (stereo not drawn) [Compound 21, 6-[5-(3,5-dichloro-4-fluoro-phenyl)-5-(trifluoromethyl)-4H-isothiazol-3-yl]-1′-(3,3-dimethylbutyl)spiro[1H-isobenzofuran-3,3′-azetidine]]	< 10 µM	
CCC(=O)N1CC2(C1)OCc1cc(C3=NSC(c4cc(Cl)c(F)c(Cl)c4)(C(F)(F)F)C3)ccc12 (stereo not drawn) [Compound 26, 1-[6-[5-(3,5-dichloro-4-fluoro-phenyl)-5-(trifluoromethyl)-4H-isothiazol-3-yl]spiro[1H-isobenzofuran-3,3′-azetidine]-1′-yl]propan-1-one]	< 10 µM	
O=C(c1ccc(N2CCOCC2)cc1)N1CC2(C1)OCc1cc(C3=NSC(c4cc(Cl)c(F)c(Cl)c4)(C(F)(F)F)C3)ccc12 (stereo not drawn) [Compound 13, [6-[5-(3,5-dichloro-4-fluoro-phenyl)-5-(trifluoromethyl)-4H-isothiazol-3-yl]spiro[1H-isobenzofuran-3,3′-azetidine]-1′-yl]-(4-morpholinophenyl)methanone]	< 10 µM	
CC(C)OCC(=O)N1CC2(C1)OCc1cc(C3=NSC(c4cc(Cl)c(F)c(Cl)c4)(C(F)(F)F)C3)ccc12 (stereo not drawn) [Compound 23, 1-[6-[5-(3,5-dichloro-4-fluoro-phenyl)-5-(trifluoromethyl)-4H-isothiazol-3-yl]spiro[1H-isobenzofuran-3,3′-azetidine]-1′-yl]-2-isopropoxy-ethanone]	< 10 µM	
O=C(CCC(F)(F)F)N1CC2(C1)OCc1cc(C3=NSC(c4cc(Cl)c(F)c(Cl)c4)(C(F)(F)F)C3)ccc12 (stereo not drawn) [Compound 10, 1-[6-[5-(3,5-dichloro-4-fluoro-phenyl)-5-(trifluoromethyl)-4H-isothiazol-3-yl]spiro[1H-isobenzofuran-3,3′-azetidine]-1′-yl]-4,4,4-trifluoro-butan-1-one]		< 1 µg/mL
CC(=O)N1CC2(C1)OCc1cc(C3=NSC(c4cc(Cl)c(F)c(Cl)c4)(C(F)(F)F)C3)ccc12 (stereo not drawn) [Compound 27, 1-[6-[5-(3,5-dichloro-4-fluoro-phenyl)-5-(trifluoromethyl)-4H-isothiazol-3-yl]spiro[1H-isobenzofuran-3,3′-azetidine]-1′-yl]ethanone]	< 10 µM	
CCOCC(=O)N1CC2(C1)OCc1cc(C3=NSC(c4cc(Cl)c(F)c(Cl)c4)(C(F)(F)F)C3)ccc12 (stereo not drawn) [Compound 24, 1-[6-[5-(3,5-dichloro-4-fluoro-phenyl)-5-(trifluoromethyl)-4H-isothiazol-3-yl]spiro[1H-isobenzofuran-3,3′-azetidine]-1′-yl]-2-ethoxy-ethanone]	< 10 µM	
Fc1c(Cl)cc(C2(C(F)(F)F)CC(c3ccc4c(c3)COC43CN(c4ncccn4)C3)=NS2)cc1Cl (stereo not drawn) [Compound 40, 6-[5-(3,5-dichloro-4-fluoro-phenyl)-5-(trifluoromethyl)-4H-isothiazol-3-yl]-1′-pyrimidin-2-yl-spiro[1H-isobenzofuran-3,3′-azetidine]]	< 10 µM	
O=C(C1CCOCC1)N1CC2(C1)OCc1cc(C3=NSC(c4cc(Cl)c(F)c(Cl)c4)(C(F)(F)F)C3)ccc12 (stereo not drawn) [Compound 19, [6-[5-(3,5-dichloro-4-fluoro-phenyl)-5-(trifluoromethyl)-4H-isothiazol-3-yl]spiro[1H-isobenzofuran-3,3′-azetidine]-1′-yl]-tetrahydropyran-4-yl-methanone]	< 10 µM	< 1 µg/mL
CC(C)C(=O)N1CC2(C1)OCc1cc(C3=NSC(c4cc(Cl)c(F)c(Cl)c4)(C(F)(F)F)C3)ccc12 (stereo not drawn) [Compound 25, 1-[6-[5-(3,5-dichloro-4-fluoro-phenyl)-5-(trifluoromethyl)-4H-isothiazol-3-yl]spiro[1H-isobenzofuran-3,3′-azetidine]-1′-yl]-2-methyl-propan-1-one]	< 10 µM	
CCCCCC(=O)N1CC2(C1)OCc1cc(C3=NSC(c4cc(Cl)c(F)c(Cl)c4)(C(F)(F)F)C3)ccc12 (stereo not drawn) [Compound 36, 1-[6-[5-(3,5-dichloro-4-fluoro-phenyl)-5-(trifluoromethyl)-4H-isothiazol-3-yl]spiro[1H-isobenzofuran-3,3′-azetidine]-1′-yl]hexan-1-one]	< 10 µM	
O=C(Nc1ccccc1)N1CC2(C1)OCc1cc(C3=NSC(c4cc(Cl)c(F)c(Cl)c4)(C(F)(F)F)C3)ccc12 (stereo not drawn) [Compound 17, 6-[5-(3,5-dichloro-4-fluoro-phenyl)-5-(trifluoromethyl)-4H-isothiazol-3-yl]-N-phenyl-spiro[1H-isobenzofuran-3,3′-azetidine]-1′-carboxamide]	< 10 µM	< 1 µg/mL
COCC(=O)N1CC2(C1)OCc1cc(C3=NSC(c4cc(Cl)c(F)c(Cl)c4)(C(F)(F)F)C3)ccc12 (stereo not drawn) [Compound 22, 1-[6-[5-(3,5-dichloro-4-fluoro-phenyl)-5-(trifluoromethyl)-4H-isothiazol-3-yl]spiro[1H-isobenzofuran-3,3′-azetidine]-1′-yl]-2-methoxy-ethanone]	< 10 µM	

Reference: patent US9420793B2, “Antiparasitic compounds” (Avista Pharma Solutions, priority 2015, dated 2016)
